Test results from paper PMC12095047, “Transport of phenoxyacetic acid herbicides by PIN-FORMED auxin transporters” (Nature Plants, 2025).
Values joined by “and” are separate entries in the source; they are usually repeats but may differ in a detail not shown here. Equal entries are not always repeated. Where two headings read alike, the source gives them in different places.

Tests used:
[1] = system: A. thaliana stem segments of wild type; assay: Arabidopsis stem transport assay, Col-0 wild type; format: in vivo, Arabidopsis thaliana; conditions: for CPM: WT;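 as to CPM: Segments numbered apical to basal with Segment 1 nearest the apical end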
Method: Arabidopsis stem transport assays were carried out as described. Briefly, 2 cm stem sections were cut above the rosette of 5-week-old plants and placed in inverted orientation into auxin transport buffer containing 500 pM IAA, 1% (wt/vol) sucrose, 5 mM 2-(N-morpholino)ethanesulfonic acid, pH 5.5 with or without 100 μM NPA. After 2 h the stems were transferred into auxin transport buffer containing 417 nM [^3H]-IAA or [^3H]-2,4-D as a substrate in the absence and presence of NPA. After 2 h, 5 mm segments were dissected, and the substrate was quantified using a liquid scintillation counter.

[2] = biological target: T1, PIN8 S55A/S146A (Arabidopsis thaliana, UniProt Q9LFP6, S146A/S55A); format: biochemical; conditions: Michaelis–Menten fit; for EC50: read-out: EC50 of peak current response
T1 construct: made in house
T1 sequence (Q9LFP6 whole entry S55A/S146A): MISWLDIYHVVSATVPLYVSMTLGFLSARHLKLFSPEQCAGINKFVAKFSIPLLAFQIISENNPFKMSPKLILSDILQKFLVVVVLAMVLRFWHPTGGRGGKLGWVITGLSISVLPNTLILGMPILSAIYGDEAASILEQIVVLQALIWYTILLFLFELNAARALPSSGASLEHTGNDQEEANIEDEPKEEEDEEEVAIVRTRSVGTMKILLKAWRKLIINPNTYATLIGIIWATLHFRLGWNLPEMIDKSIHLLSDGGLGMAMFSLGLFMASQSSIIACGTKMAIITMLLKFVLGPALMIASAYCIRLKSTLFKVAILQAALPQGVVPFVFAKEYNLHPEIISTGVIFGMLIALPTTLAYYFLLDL

[3] = biological target: T2, PIN8 N223A (Arabidopsis thaliana, UniProt Q9LFP6, N223A); format: biochemical; conditions: for fold-change difference to the respective EC50 of wildtype PIN8: N223A
T2 construct: made in house
T2 sequence (Q9LFP6 whole entry N223A): as the sequence (Q9LFP6 whole entry S55A/S146A) above, with A55S, A146S, N223A counted along it

[4] = biological target: T3, PIN8 I51Y (Arabidopsis thaliana, UniProt Q9LFP6, I51Y); format: biochemical; conditions: Michaelis–Menten fit; for EC50: read-out: EC50 of peak current response
T3 construct: made in house
T3 sequence (Q9LFP6 whole entry I51Y): as the sequence (Q9LFP6 whole entry S55A/S146A) above, with I51Y, A55S, A146S counted along it

[5] = biological target: T4, PIN8 S55A (Arabidopsis thaliana, UniProt Q9LFP6, S55A); format: biochemical; conditions: for Imax / EC50: PIN8 S55A, Michaelis–Menten fit; for EC50: read-out: EC50 of peak current response; for Peak current: S55A, individual sensors
T4 construct: made in house
T4 sequence (Q9LFP6 whole entry S55A): as the sequence (Q9LFP6 whole entry S55A/S146A) above, with A146S counted along it

[6] = biological target: T5, PIN8 (Arabidopsis thaliana, UniProt Q9LFP6); assay: Xenopus oocyte efflux assay, PIN8; format: cell-based; conditions: for Rel. 2,4-D transport rate: [3H]-2,4-D export by PIN8 from oocytes; for Rel. 2,4-D transport rate / Rel. IAA transport rate: individual experiments; for Rel. IAA transport rate: [3H]-IAA export by PIN8 from oocytes
T5 construct: made in house
T5 sequence (Q9LFP6 1-367): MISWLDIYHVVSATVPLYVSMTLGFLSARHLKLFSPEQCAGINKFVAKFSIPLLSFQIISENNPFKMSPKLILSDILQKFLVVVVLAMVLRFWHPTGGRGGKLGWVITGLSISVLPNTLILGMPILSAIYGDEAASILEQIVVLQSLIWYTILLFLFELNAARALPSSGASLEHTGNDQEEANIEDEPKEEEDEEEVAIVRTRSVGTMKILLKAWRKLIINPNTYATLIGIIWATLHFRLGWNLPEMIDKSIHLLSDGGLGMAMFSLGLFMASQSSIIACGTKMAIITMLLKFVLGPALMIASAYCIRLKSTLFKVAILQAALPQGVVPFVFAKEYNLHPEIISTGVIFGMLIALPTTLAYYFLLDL
Method: Oocyte efflux experiments were carried out as described[12],[20],[26]. Briefly, oocytes were injected with 150 ng transporter complementary RNA without or with 75 ng kinase cRNA. [^3H]-IAA (25 Ci mmol^−1) and [^3H]-4-CPA (37.7 Ci mmol^−1) was purchased from RC Tritec. [^3H]-2,4-D (25 Ci mmol^−1) was purchased from ARC. Oocytes were injected with substrate to reach an internal concentration of 1 µM, corresponding to 100%. Residual radioactivity was determined for each individual oocyte by liquid scintillation counting after the time points indicated and are expressed relative to the initial 100%. Each time point represents the mean and s.e. of ten oocytes. To calculate the relative transport rate in percentage per minute, linear regression was performed. Each data point in Fig. 1b,c and Extended Data Fig. 2b,e represents the transport rate of one biological replicate using oocytes collected from different Xenopus females.

Row | SMILES | Imax [2] | EC50 [2] | fold-change difference to the respective EC50 of wildtype PIN8 [3] | Imax [4] | EC50 [4] | Imax [5] | EC50 [5] | Peak current ([5]; 5 µM substrate) | Peak current ([5]; 20 µM substrate) | Peak current ([5]; 50 µM substrate) | Peak current ([5]; 100 µM substrate) | Peak current ([5]; 500 µM substrate) | Peak current ([5]; 1000 µM substrate) | Peak current ([5]; 2000 µM substrate) | also measured
1 | O=C(O)COc1ccc(Cl)cc1Cl [2,4-D, 2,4-dichlorophenoxyacetic acid] | 9 ± 2 nA | 38 ± 6 µM | completely abolishes binding | 3 ± 0.8 nA | 641 ± 77 µM | 6 ± 0.6 nA | 95 ± 36 µM | 0.5771 nA and 0.4543 nA and 0.3145 nA and 0.4609 nA | 1.612 nA and 1.263 nA and 1.114 nA and 1.2922 nA | 2.6274 nA and 2.193 nA and 2.012 nA and 0.000174 nA | 3.62 nA and 3.055 nA and 2.8112 nA and 3.289 nA | 5.907 nA and 5.083 nA and 4.589 nA and 5.296 nA | 6.235 nA and 5.542 nA and 4.855 nA and 5.533 nA | 6.017 nA and 5.654 nA and 4.774 nA and 5.542 nA | CPM ([1]; sheet EDF2I, + NPA, Segment 2, single stems): 33 CPM and 25 CPM and 26 CPM and 39 CPM; CPM ([1]; sheet EDF2I, + NPA, Segment 3, single stems): 20 CPM and 21 CPM and 33 CPM and 30 CPM; CPM ([1]; sheet EDF2I, - NPA, Segment 1, single stems): 76 CPM and 115 CPM and 77 CPM and 107 CPM; CPM ([1]; sheet EDF2I, - NPA, Segment 2, single stems): 35 CPM and 37 CPM and 34 CPM and 29 CPM and 30 CPM; CPM ([1]; sheet EDF2I, - NPA, Segment 3, single stems): 29 CPM and 37 CPM and 35 CPM and 26 CPM and 28 CPM; transport in stem segments, lower than IAA transport ([1]; wild-type plants): about 20 fold; transport rate of export from oocytes relative to IAA ([6]; PIN8, NPA-sensitive export): about half of that determined for IAA; Rel. 2,4-D transport rate ([6]; NPA + (10 μM)): 0.7325 % exported/min and 0.3331 % exported/min and 0.3715 % exported/min and 0.009798 % exported/min; Rel. 2,4-D transport rate ([6]; NPA -): 1.122 % exported/min and 0.7012 % exported/min and 0.7258 % exported/min and 0.8004 % exported/min
2 | O=C(O)COc1ccc(Cl)cc1 [4-CPA, 4-chlorophenoxyacetic acid] | 11 ± 0.9 nA | 81 ± 3 µM | completely abolishes binding | 3 ± 0.8 nA | 1040 ± 252 µM | 11 ± 1 nA | 328 ± 15 µM | 0.2701 nA and 0.2897 nA and 0.3406 nA | 0.9459 nA and 0.8941 nA and 1.017 nA | 1.817 nA and 1.664 nA and 1.992 nA | 2.935 nA and 2.612 nA and 3.1231 nA | 6.5808 nA and 5.777 nA and 6.881 nA | 8.474 nA and 7.36 nA and 8.719 nA | 10.4298 nA and 8.998 nA and 10.8546 nA | –
3 | O=C(O)Cc1c[nH]c2ccccc12 [IAA, indole-3-acetic acid] | 7 ± 2 nA | 341 ± 128 µM | – | 2 ± 0.2 nA | 547 ± 171 µM | 6 ± 1 nA | 213 ± 58 µM | 0.3417 nA and 0.3232 nA and 0.2318 nA and 0.3509 nA | 1.04 nA and 0.8246 nA and 0.4664 nA and 0.4596 nA | 1.937 nA and 1.54 nA and 0.9207 nA and 0.8323 nA | 2.888 nA and 2.325 nA and 1.514 nA and 1.385 nA | 5.317 nA and 4.4508 nA and 3.048 nA and 3.044 nA | 6.258 nA and 5.302 nA and 3.739 nA and 3.804 nA | 7.104 nA and 6.138 nA and 4.476 nA and 4.5392 nA | CPM ([1]; sheet EDF2H, + NPA, Segment 1, single stems): 342 CPM and 190 CPM and 344 CPM and 366 CPM and 333 CPM; CPM ([1]; sheet EDF2H, + NPA, Segment 2, single stems): 98 CPM and 93 CPM and 124 CPM and 114 CPM; CPM ([1]; sheet EDF2H, + NPA, Segment 3, single stems): 125 CPM and 94 CPM and 137 CPM and 146 CPM and 104 CPM; CPM ([1]; sheet EDF2H, - NPA, Segment 3, single stems): 181 CPM and 109 CPM and 111 CPM and 125 CPM and 156 CPM; Imax ([3]; PIN8 N223A, Michaelis–Menten fit): 2 ± 0.8 nA; EC50 ([3]; PIN8 N223A, Michaelis–Menten fit, No transport = model could not be fit, read-out: EC50 of peak current response): 444 ± 205 µM; Rel. IAA transport rate ([6]; NPA + (10 μM)): 0.4862 % exported/min and 0.4056 % exported/min and 0.4406 % exported/min; Rel. IAA transport rate ([6]; NPA -): 2.069 % exported/min and 2.225 % exported/min and 1.917 % exported/min
